Several values for one entry are separate records, joined by “and”; a condition that tells them apart may be missing. Equal values may be shown once. Non-standard residues stand in square brackets, D forms with d. Residues, ends and D or L forms follow the SMILES beside them. Dmt = Cc1cc(O)cc(C)c1C[C@H](N)C(=O)O
These compounds were tested against Mu-type opioid receptor (Mus musculus, UniProt P42866).
Chain of Mu-type opioid receptor (P42866 whole entry): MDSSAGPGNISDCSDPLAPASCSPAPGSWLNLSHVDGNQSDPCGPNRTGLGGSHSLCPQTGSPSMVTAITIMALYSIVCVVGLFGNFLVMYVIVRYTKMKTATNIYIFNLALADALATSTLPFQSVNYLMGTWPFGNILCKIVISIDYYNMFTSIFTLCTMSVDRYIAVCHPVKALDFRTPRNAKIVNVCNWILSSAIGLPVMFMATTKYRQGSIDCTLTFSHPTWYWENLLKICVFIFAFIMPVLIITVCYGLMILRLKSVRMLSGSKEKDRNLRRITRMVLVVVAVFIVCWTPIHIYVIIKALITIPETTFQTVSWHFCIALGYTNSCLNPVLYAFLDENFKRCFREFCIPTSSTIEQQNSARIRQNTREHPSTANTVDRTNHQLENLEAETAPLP

Row | SMILES | Ki
1 | C[C@@H](NC(=O)[C@@H](N)Cc1ccc(O)cc1)C(=O)N[C@@H](Cc1ccccc1)C(=O)N[C@@H](Cc1ccccc1)C(N)=O (H-Y[dA]FF-NH2) | 1.53 nM and 3.44 nM
2 | NCCC[C@H](NC(=O)[C@H](Cc1ccccc1)NC(=O)[C@@H](CCCN=C(N)N)NC(=O)[C@@H](N)Cc1ccc(O)cc1)C(N)=O [5-amino-2-{1-[1-[1-amino-2-(4-hydroxyphenyl)ethylcarboxamido]-4-amino(imino)methylamino-(1R)-butylcarboxamido]-2-phenylethylcarboxamido}pentanamide] | 1.2 nM and 10.4 nM
3 | Cc1cc(O)cc(C)c1C[C@H](N)C(=O)N[C@H](C)C(=O)N[C@@H](Cc1ccccc1)C(=O)N[C@@H](Cc1ccccc1)C(N)=O [Dmt-d-Ala-Phe-Phe-NH2] (H-[Dmt][dA]FF-NH2) | 0.173 nM and 0.174 nM
4 | Cc1cc(O)cc(C)c1C[C@H](N)C(=O)N[C@H](CCCN=C(N)N)C(=O)N[C@@H](Cc1ccccc1)C(=O)N[C@@H](CN)C(N)=O [Dmt-d-Arg-Phe-A2pr-NH2] | 0.0636 nM and 0.145 nM
5 | Cc1cc(O)cc(C)c1C[C@H](N)C(=O)N[C@H](CCCN=C(N)N)C(=O)N[C@@H](Cc1ccccc1)C(=O)N[C@@H](CCCN)C(N)=O [Dmt-d-Arg-Phe-Orn-NH2] | 0.151 nM and 0.161 nM
6 | NCCCC[C@H](NC(=O)[C@H](Cc1ccccc1)NC(=O)[C@@H](CCCN=C(N)N)NC(=O)[C@@H](N)Cc1ccc(O)cc1)C(N)=O [NSC_122222] | 1.69 nM and 12.9 nM
7 | NC[C@H](NC(=O)[C@H](Cc1ccccc1)NC(=O)[C@@H](CCCN=C(N)N)NC(=O)[C@@H](N)Cc1ccc(O)cc1)C(N)=O [Tyr-d-Arg-Phe-A2pr-NH2] | 2.55 nM and 12.7 nM

Source: BindingDB's records for doi:10.1124/jpet.103.054775 (Cornell University, 2003)
